Entries after “also recorded” stand apart in the source; their conditions may differ. Read-outs that look alike come from different tables or passages of the source.
How the values were obtained:
[1] = target: T1, human muscarinic M1 acetylcholine receptor (Homo sapiens, UniProt P11229); format: cell-based; settings: 400 ng/ml BAY44-4400
T1 construct: The full-length cDNA of a human muscarinic receptor 1 (huM1Rez); expressed in transfected cells; host or cells: HEK-293, transient (pEGFP-N3)
T1 sequence (P11229 1-460): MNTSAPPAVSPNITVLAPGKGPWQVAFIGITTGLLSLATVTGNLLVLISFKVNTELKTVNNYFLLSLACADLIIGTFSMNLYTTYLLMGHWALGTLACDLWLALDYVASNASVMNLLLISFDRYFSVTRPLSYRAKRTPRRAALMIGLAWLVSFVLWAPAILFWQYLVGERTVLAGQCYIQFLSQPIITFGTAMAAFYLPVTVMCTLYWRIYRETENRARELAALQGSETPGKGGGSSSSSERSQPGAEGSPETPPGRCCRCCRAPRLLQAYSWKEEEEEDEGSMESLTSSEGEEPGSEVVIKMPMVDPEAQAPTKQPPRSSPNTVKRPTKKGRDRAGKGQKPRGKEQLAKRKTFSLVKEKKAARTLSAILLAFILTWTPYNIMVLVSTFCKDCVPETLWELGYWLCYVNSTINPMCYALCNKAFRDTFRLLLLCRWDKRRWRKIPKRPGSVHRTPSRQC

HC110-R [2] = format: cell-based, Haemonchus contortus; settings: for Ca2+ response to substance alone: 400 ng/ml where stated, up to 50 min or 90 min preincubation
Experimental: (§1) The intracellular free Ca^2+ concentration [Ca^2+]i was measured in COS-7 and HEK293 cells transiently transfected with the HC110-R-EGFP or β2-AR-EGFP construct using the calcium imaging method (see also FIG. 11). In each case 2×10^5 COS-7 and HEK293 cells were applied to a 42 mm cover glass coated with 1% gelatine in 55 mm tissue culture dishes with 5 ml of DMEM medium (with 10% FCS and pen/strep). The transfection took place with the aid of the non-liposomal transfection reagent FuGENE 6 (Roche Molecular Biochemicals, Mannheim). […] Constructs of the HC110-R full-length clone with a GFP tag fused in the correct reading frame, and the complete cDNA of the β2-adrenergic receptor which had likewise been provided with a GFP tag at the 3′ end, were transfected.
(§2) After the incubation, the cells loaded with Fura-2/AM were examined under an inverted microscope (Zeiss, Axiovert, Germany) and, in parallel with this, in a digital imaging fluorescence microscope (PTI) and differentiated into transfected and untransfected cells at a wavelength of 440 and 490 nm respectively. On average, 5-7 transfected and non transfected cells were selected by fixing an ROI (region of interest). The extinction was measured at 340 nm (calcium-bound Fura-2/AM) and 380 nm (free Fura-2/AM), and the emission was measured at 510 nm. Evaluation took place using the Image Master 1.x software by forming the quotient of 340:510 nm, 380:510 nm and the ratio of 340/380:510 nm (background corrected images) as a function of the agent added.
Agents were always added 6 min after starting the measurement by removing an appropriate volume of Na^+ HBS buffer and pipetting the agent directly into the sample vessel for a further 30 to 50 min. The total volume in the sample vessel was constant at 1.5 ml throughout the experiment. […] Addition of CdCl2 and nifedipine took place immediately at the start of the experiment and before addition of α-LTX, and EGTA was added both at the start of the experiment and 4 min after the addition of α-LTX. Dissolved α-LTX was present in a concentration of 300 nM in 50 mM tris-HCl, pH 8.0; BAY 44-4400 was initially dissolved in pure DMSO (stock solutions between 0.004 and 10 μg/ml). The stock solutions were adjusted to the required concentration in the Na^+ HBS buffer. The maximum amount of the active substance BAY 44-4400 which could be dissolved at a final concentration of 0.1% DMSO was found by setting up serial dilutions in Na^+ HBS.
The data were analyzed using the Excel 98 table calculation programme. The results are derived from at least 2-4 reproduced experiments on in each case 4-8 transfected and un-transfected cells.

HC110-R [3] = format: binding, Haemonchus contortus
Description: Since denaturation of proteins is necessary for carrying out SDS-PAGE, there may be destruction of conformation-dependent epitopes. Antibodies or proteins which specifically recognize such epitopes may therefore no longer bind. […] BAY44-4400 differs from PF1022A by 2 morpholine residues which are covalently bonded to the phenyl rings of the two D-phenyllactyl radicals of PF1022A. […] For this purpose, total protein from untransfected HEK-293 cells and HEK-293 cells which transiently express HC110-R-Myc/His, and from the 54 kDa N terminus and the 21 kDa C terminus of HC110-R which were expressed in E. coli, were fractionated by SDS-PAGE, renatured and blotted in the usual way. […] In addition, a partially renatured SDS polyacrylamide gel with the protein fractions of untransfected HEK-293 cells, HEK-293 cells transiently transfected with HC110-R-Myc/His, and the N terminus of HC110-R expressed in E. coli and total protein from H. contortus was blotted, incubated with PF1022A-biotin and detected using streptavidin HRP.

nematodes = experiment: Anthelmintic / neuropharmacological activity on nematodes
[4] = target: T2, mouse β2-adrenergic receptor (Mus musculus, UniProt P18762); experiment: Ca2+ imaging of HEK-293 cells transfected with β2-R-GFP (control); format: cell-based; settings: BAY 44-4400 present
T2 construct: was fused with a C-terminal EGFP tag by amplifying the full-length cDNA with the P117 mouse 2AR XhoI 5′ primer; expressed in transfected cells; host or cells: HEK-293, transient (pEGFP-N3)
T2 sequence (P18762 whole entry, the tested form may be a part): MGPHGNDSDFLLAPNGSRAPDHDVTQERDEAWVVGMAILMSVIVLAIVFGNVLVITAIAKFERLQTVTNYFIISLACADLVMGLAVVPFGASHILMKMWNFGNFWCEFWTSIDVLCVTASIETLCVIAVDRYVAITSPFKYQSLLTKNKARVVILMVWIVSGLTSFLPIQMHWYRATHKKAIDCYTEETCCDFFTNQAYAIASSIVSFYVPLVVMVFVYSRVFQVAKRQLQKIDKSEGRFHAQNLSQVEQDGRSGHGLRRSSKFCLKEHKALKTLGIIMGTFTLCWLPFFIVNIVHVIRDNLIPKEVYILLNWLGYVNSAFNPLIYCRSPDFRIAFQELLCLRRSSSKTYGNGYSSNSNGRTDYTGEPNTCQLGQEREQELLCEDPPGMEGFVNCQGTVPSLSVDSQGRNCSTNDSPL
Experimental: as §1, §2
Agents were always added 6 min after starting the measurement by removing an appropriate volume of Na^+ HBS buffer and pipetting the agent directly into the sample vessel for a further 30 to 50 min. The total volume in the sample vessel was constant at 1.5 ml throughout the experiment. […] Addition of CdCl2 and nifedipine took place immediately at the start of the experiment and before addition of α-LTX, and EGTA was added both at the start of the experiment and 4 min after the addition of α-LTX. […]
The data were analyzed using the Excel 98 table calculation programme. […]

[5] = 4 ng/ml added 6 min before 75 nM α-LTX

CC(C)C[C@H]1C(=O)O[C@H](Cc2ccc(N3CCOCC3)cc2)C(=O)N(C)[C@@H](CC(C)C)C(=O)O[C@H](C)C(=O)N(C)[C@@H](CC(C)C)C(=O)O[C@H](Cc2ccc(N3CCOCC3)cc2)C(=O)N(C)[C@@H](CC(C)C)C(=O)O[C@H](C)C(=O)N1C [BAY44-4400, cyclo(-D-Lac-L-MeLeu-D-p-morpholinyl-PhLac-L-MeLeu-)]
carbachol-induced increase in [Ca2+]i in presence of BAY44-4400 [1]: 89 ± 5.5 nM
first small α-LTX-induced increase in [Ca2+]i (HC110-R [2]; [5]): disappeared
α-LTX-induced increase in [Ca2+]i in presence of substance (HC110-R [2]; [5]): 44 ± 6.0 nM
change in [Ca2+]i after preincubation with substance alone (HC110-R [2]; 4 ng/ml or 400 ng/ml, 90 min preincubation, no α-LTX): no change in [Ca^2+]i
α-LTX-induced increase in [Ca2+]i after preincubation (HC110-R [2]; 4 ng/ml, 90 min preincubation, substance removed, then 75 nM α-LTX): 95 ± 20.5 nM
plateau of [Ca2+]i after the peak (HC110-R [2]; 4 ng/ml, 90 min preincubation, then 75 nM α-LTX): 23 ± 2.6 nM
change in [Ca2+]i, BAY44-4400 given with piperazine (HC110-R [2]; 400 ng/ml BAY44-4400 + 1 or 10 μM piperazine, untransfected and HC110-R-GFP-transfected cells): no change in [Ca^2+]i was detectable
α-LTX-induced increase in [Ca2+]i in presence of substance (HC110-R [2]; 400 ng/ml added 6 min before 75 nM α-LTX): 49 ± 4.2 nM
plateau of [Ca2+]i above initial values after the peak (HC110-R [2]; 400 ng/ml added 6 min before 75 nM α-LTX, 8 min after peak): 11 ± 1.4 nM
delay of the α-LTX-induced increase (HC110-R [2]; 400 ng/ml versus 4 ng/ml, 90 min preincubation): 12 min
Ca2+ response to substance alone (HC110-R [2]; no α-LTX): does not influence the Ca^2+ concentration; also recorded: neither the very effective nematicide BAY44-4400 nor the virtually ineffective antipode PF1022-001 induces a Ca^2+ response
Ca2+ response to substance alone (HC110-R [2]; no α-LTX, listed as BAY 44-4400): in no comparable way with a change in the intracellular Ca^2+ concentration
Ca2+-mediated response to substance alone (HC110-R [2]; 100, 300 or 400 ng/ml and 1 or 10 μg/ml, 50 min, untransfected and HC110-R-GFP-transfected cells): At no concentration was a Ca^2+-mediated response detectable
mode of action on α-LTX signalling (HC110-R [2]; HC110-R-transfected HEK-293 cells): acts as antagonist of α-LTX
first small α-LTX-induced increase in [Ca2+]i (HC110-R [2]; incubation 6 minutes before 75 nM α-LTX): disappears
reduction of second α-LTX-induced increase (HC110-R [2]; incubation 6 minutes before 75 nM α-LTX, 15 minutes after α-LTX): 85%
first α-LTX-induced increase in Ca2+ (HC110-R [2]; preincubated 60 minutes before 30 minutes FURA loading, 75 nM α-LTX): complete disappearance
second α-LTX-induced increase in [Ca2+]i (HC110-R [2]; preincubated 60 minutes before 30 minutes FURA loading, 30 minutes after 75 nM α-LTX): 70 nM
HC110-R-specific binding in a Western blot (HC110-R [3]; denatured proteins, no renaturation): not identifiable
band in HEK-293 cells expressing HC110-R-Myc/His (HC110-R [3]; renatured with urea, no band in untransfected cells): distinct band 116 kDa in size
binding to 54 kDa N terminus of HC110-R (HC110-R [3]; renatured, fragment expressed in E. coli): bound to the 54 kDa N terminus of HC110-R
anthelmintic / nematicidal activity in words (nematodes): very effective nematicide
effect on isoproterenol-induced Ca2+ increase [4]: does not interfere with the isoproterenol-induced signal transmission
effect on isoproterenol-induced Ca2+ increase ([4]; listed as BAY 44-4400): unaffected by BAY 44-4400

Source: patent publication US20050037436A1, “Test systems and the use thereof for identifying and characterizing compounds” (priority 2000, published 2005)
